This note sets out measurements from US11945822B2, “Pyrazolo-triazine and/or pyrazolo-pxrimidine derivatives as selective inhibitor of cyclin dependent kinase” (QURIENT CO., LTD., priority 2018, dated 2024).

Test [1] deals with H460. As to the kind of experiment: Cellular H460 viability assay (CellTiter-Glo, 72 hours). The format is cell-based. As to conditions: Homo sapiens, NCI-H460. The method, boiled down:
(§1)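 Luminescent ATP read-out (CellTiter-Glo) after 72 h compound exposure at 37 °C/5% CO2; duplicate wells; vehicle control DMSO <0.1% final; seeding density set per cell line.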
For orientation: ATP-based viability assays read luminescence as a measure of living cells.

Test [2] relates to MOLT-4. In words: Cellular MOLT-4 viability assay (CellTiter-Glo, 72 hours). The format is cell-based. As to conditions: Homo sapiens, MOLT4 viability assay. The method, boiled down:
as §1

Test [3] deals with RPMI-8226. As to the kind of experiment: Cellular RPMI-8226 viability assay (CellTiter-Glo, 72 hours). It counts as cell-based. As to conditions: Homo sapiens. The method, boiled down: as §1
In test [4] the target is T1, CDK1/Cyclin B (Homo sapiens, UniProt P06493).
T1 construct: purchased Invitrogen PR4768C
T1 sequence (P06493 whole entry): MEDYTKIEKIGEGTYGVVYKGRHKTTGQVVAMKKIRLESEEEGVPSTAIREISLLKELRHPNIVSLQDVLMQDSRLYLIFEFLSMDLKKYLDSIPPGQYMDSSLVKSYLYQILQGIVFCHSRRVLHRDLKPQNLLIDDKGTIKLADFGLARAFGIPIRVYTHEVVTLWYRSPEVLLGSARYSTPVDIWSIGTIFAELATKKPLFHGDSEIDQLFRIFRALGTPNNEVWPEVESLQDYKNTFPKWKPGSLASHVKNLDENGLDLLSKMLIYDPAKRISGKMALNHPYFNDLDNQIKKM
T1 sequence (P14635 whole entry partner): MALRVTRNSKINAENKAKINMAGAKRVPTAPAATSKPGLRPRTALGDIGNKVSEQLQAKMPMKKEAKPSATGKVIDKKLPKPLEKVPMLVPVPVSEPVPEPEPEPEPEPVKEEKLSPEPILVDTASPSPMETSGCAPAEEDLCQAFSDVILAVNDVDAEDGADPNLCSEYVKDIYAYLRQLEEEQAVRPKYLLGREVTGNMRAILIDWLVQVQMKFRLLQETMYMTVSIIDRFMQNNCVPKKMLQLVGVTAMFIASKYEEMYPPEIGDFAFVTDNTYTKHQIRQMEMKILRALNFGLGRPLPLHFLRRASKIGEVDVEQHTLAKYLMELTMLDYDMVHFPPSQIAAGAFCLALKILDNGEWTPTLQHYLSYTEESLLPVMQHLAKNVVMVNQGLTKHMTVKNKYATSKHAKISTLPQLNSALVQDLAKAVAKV
As to the kind of experiment: Enzymatic assay for CDK1 (FRET based LANCE Ultra kinase assay). As to conditions: read-out: CDK1 enzymatic activity (IC50 range). The format is biochemical. The method, boiled down: (§2)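 LANCE Ultra TR-FRET: ULight-MBP peptide (68 nM) with ATP at Km, […], 60 min at 23° C. EDTA plus Eu-anti-phospho-MBP added, another 60 min, then 665/615 nm emission read. Compounds tested as 8-dose 4-fold DMSO dilutions.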

The target of test [5] is T2, CDK2/Cyclin A (Homo sapiens, UniProt P24941).
T2 construct: purchased Invitrogen PV6290
In words: Enzymatic assay for CDK2 (FRET based LANCE Ultra kinase assay). The format is biochemical. As to conditions: read-out: CDK2 enzymatic activity (IC50 range). The method, boiled down:
as §2
In general terms: TR-FRET usually uses a lanthanide donor and a delayed reading to cut background.

Test [6] deals with T3, CDK5/p25 (Homo sapiens, UniProt Q00535).
T3 construct: purchased Invitrogen PR8543B
T3 sequence (Q00535 whole entry): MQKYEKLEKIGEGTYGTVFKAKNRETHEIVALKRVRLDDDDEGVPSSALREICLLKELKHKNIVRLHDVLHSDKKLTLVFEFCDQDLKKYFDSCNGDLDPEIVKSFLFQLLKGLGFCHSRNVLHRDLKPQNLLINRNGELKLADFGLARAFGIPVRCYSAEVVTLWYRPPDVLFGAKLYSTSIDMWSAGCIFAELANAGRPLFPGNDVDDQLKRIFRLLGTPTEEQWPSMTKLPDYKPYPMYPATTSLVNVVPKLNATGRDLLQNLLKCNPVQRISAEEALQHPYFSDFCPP
T3 sequence (Q15078 99-307 partner limits assumed): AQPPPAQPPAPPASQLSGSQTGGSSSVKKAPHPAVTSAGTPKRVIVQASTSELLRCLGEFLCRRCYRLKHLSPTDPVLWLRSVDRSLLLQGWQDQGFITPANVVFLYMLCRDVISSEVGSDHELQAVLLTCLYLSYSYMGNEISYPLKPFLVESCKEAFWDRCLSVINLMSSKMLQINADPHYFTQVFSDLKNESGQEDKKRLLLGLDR
As to the kind of experiment: Enzymatic assay for CDK5 (FRET based LANCE Ultra kinase assay). As to conditions: read-out: CDK5 enzymatic activity (IC50 range). It counts as biochemical. The method, boiled down:
as §2

Test [7] deals with T4, CDK7/Cyclin H/MNAT1 (Homo sapiens, UniProt P50613).
T4 construct: purchased Invitrogen PR6749B
T4 sequence (P50613 whole entry): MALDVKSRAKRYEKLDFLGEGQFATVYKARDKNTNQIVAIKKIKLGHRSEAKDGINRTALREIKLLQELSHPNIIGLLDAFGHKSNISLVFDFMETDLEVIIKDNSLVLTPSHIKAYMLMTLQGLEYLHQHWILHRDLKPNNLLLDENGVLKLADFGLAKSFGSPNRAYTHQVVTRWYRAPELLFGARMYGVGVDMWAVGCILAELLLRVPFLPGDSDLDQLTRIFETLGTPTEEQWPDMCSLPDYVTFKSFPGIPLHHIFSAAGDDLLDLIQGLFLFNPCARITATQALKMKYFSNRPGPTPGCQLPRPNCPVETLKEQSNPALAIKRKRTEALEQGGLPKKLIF
T4 sequence (P51946 whole entry partner): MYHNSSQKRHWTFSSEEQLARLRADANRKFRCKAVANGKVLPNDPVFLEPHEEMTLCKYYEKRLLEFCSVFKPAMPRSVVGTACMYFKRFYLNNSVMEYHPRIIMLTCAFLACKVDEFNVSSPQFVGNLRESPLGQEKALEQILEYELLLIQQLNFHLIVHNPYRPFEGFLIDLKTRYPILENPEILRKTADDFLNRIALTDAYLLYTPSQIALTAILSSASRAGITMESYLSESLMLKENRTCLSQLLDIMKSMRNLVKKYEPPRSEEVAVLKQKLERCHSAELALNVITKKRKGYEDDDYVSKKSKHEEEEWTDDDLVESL
T4 sequence (P51948 whole entry partner): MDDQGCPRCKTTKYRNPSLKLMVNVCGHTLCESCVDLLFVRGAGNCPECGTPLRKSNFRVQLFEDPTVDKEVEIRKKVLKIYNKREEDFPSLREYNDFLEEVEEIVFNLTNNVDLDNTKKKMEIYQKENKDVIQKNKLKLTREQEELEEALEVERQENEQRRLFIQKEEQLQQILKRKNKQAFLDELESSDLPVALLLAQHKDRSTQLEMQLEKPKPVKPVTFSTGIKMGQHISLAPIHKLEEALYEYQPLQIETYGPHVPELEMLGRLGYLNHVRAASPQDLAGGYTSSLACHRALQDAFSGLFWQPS
In words: Enzymatic assay for CDK7 (FRET based LANCE Ultra kinase assay). The format is biochemical. As to conditions: for IC50: read-out: CDK7 enzymatic activity (IC50 range). The method, boiled down: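 Inhibition was measured at Km ATP by time-resolved FRET between a Eu anti-phospho antibody and a phosphorylated ULight peptide. The enzyme was the purified CDK7/cyclin complex, and data were curve-fitted.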

In test [8] the test system is HCT116. As to the kind of experiment: Cellular HCT116 viability assay (CellTiter-Glo, 72 hours). It counts as cell-based. As to conditions: Homo sapiens, HCT-116. The method, boiled down:
as §1

The test system of test [9] is MV4-11. In words: Cellular MV4-11 viability assay (CellTiter-Glo, 72 hours). It counts as cell-based. As to conditions: Homo sapiens. The method, boiled down:
as §1

As usually defined, the IC50 is the concentration that inhibits the measured activity by half. In the case of `CC(C)c1cnn2c(NCc3ccccc3-n3cc4cc(-c5ccccc5)ccc4n3)nc(N3CCC(N)CC3)nc12` [Compound 101], the IC50 in [1], in [2] and in [3] was 1000 to 10000 nM in each case.

For the compound `CC(C)c1cnn2c(NCc3ccccc3-n3ncc4ccccc43)nc(N3CCC(N)CC3)nc12` [Compound 58], the IC50 in [2] and in [3] was 1000 to 10000 nM each time.

On to `CC(C)c1cnn2c(NCc3ccccc3-c3nc4ccccc4n3C)nc(N3CCC(N)CC3)nc12` [Compound 96], for which the IC50 in [4] is more than 1000 nM; in [5] it was more than 1000 nM; in [6], 100 to 1000 nM; in [7], less than 100 nM; in test [1], less than 1000 nM; in test [2] it was 1000 to 10000 nM. Besides, in test [3], the IC50 is less than 1000 nM. The “CDK1/CDK7: Selectivity of CDK7 inhibition over CDK1 inhibition” value in test [7] is on record as “A (A=greater than 200 fold)”. Also, the “CDK2/CDK7: Selectivity of CDK7 inhibition over CDK2 inhibition” value in test [7] is given as “A (A=greater than 200 fold)”. Also, the “CDK5/CDK7: Selectivity of CDK7 inhibition over CDK5 inhibition” value in [7] is “B (B=less than 200 fold, but greater than 20 fold)”.

Consider `CC(C)c1cnn2c(NCc3cccc4ccc(NC(=O)CCCN(C)C)nc34)nc(N3CCC(N)CC3)nc12` [Compound 95], for which the concentration for half-maximal inhibition (IC50) is more than 1000 nM in test [4]; 100 to 1000 nM in [5]; 100 to 1000 nM in [6]; less than 100 nM in test [7]; 1000 to 10000 nM in test [2]; less than 1000 nM in [3]. Besides, the “CDK1/CDK7: Selectivity of CDK7 inhibition over CDK1 inhibition” value in test [7] was “A (A=greater than 200 fold)”. Also, the “CDK2/CDK7: Selectivity of CDK7 inhibition over CDK2 inhibition” value in test [7] is on record as “A (A=greater than 200 fold)”. In addition, in test [7], the “CDK5/CDK7: Selectivity of CDK7 inhibition over CDK5 inhibition” value is listed as “B (B=less than 200 fold, but greater than 20 fold)”.

For the compound `CC(C)c1cnn2c(NCc3ccccc3Nc3ccccc3)nc(N3CCC(N)CC3)nc12` [Compound 61], the IC50 in test [4] is more than 1000 nM; in test [5], 100 to 1000 nM; in test [6], 100 to 1000 nM; in [7], less than 100 nM; in test [1] it was less than 1000 nM; in test [2], 1000 to 10000 nM. The compound further displayed an IC50 in [3] of 1000 to 10000 nM. The “CDK1/CDK7: Selectivity of CDK7 inhibition over CDK1 inhibition” value in test [7] is on record as “B (B=less than 200 fold, but greater than 20 fold)”. In addition, in [7], the “CDK2/CDK7: Selectivity of CDK7 inhibition over CDK2 inhibition” value is given as “B (B=less than 200 fold, but greater than 20 fold)”. For the same compound, the “CDK5/CDK7: Selectivity of CDK7 inhibition over CDK5 inhibition” value in test [7] was “C (C=less than 20 fold)”.

Consider `CC(C)c1cnn2c(NCc3ccccc3N3CCc4ccccc43)nc(N3CCC(N)CC3)nc12` [Compound 76], for which the IC50 in test [4] was more than 1000 nM; in test [5], more than 1000 nM; in test [6], 100 to 1000 nM; in [7] it was less than 100 nM; in [1], less than 1000 nM; in test [2], 1000 to 10000 nM. Further, the IC50 in test [3] is less than 1000 nM. In addition, in test [7], the “CDK1/CDK7: Selectivity of CDK7 inhibition over CDK1 inhibition” value is “A (A=greater than 200 fold)”. For the same compound, in [7], the “CDK2/CDK7: Selectivity of CDK7 inhibition over CDK2 inhibition” value was “B (B=less than 200 fold, but greater than 20 fold)”. For the same compound, in test [7], the “CDK5/CDK7: Selectivity of CDK7 inhibition over CDK5 inhibition” value is “B (B=less than 200 fold, but greater than 20 fold)”.

Turning to `CC(C)c1cnn2c(NCc3ccccc3NC(=O)c3ccccc3)nc(N3CCC(N)CC3)nc12` [Compound 87], the half-maximal inhibitory concentration (IC50) is more than 1000 nM in test [4]; more than 1000 nM in [5]; 100 to 1000 nM in [6]; less than 100 nM in test [7]; 1000 to 10000 nM in test [2]; less than 1000 nM in test [3]. The “CDK1/CDK7: Selectivity of CDK7 inhibition over CDK1 inhibition” value in test [7] is recorded as “A (A=greater than 200 fold)”. In [7], the “CDK2/CDK7: Selectivity of CDK7 inhibition over CDK2 inhibition” value was “A (A=greater than 200 fold)”. Besides, the “CDK5/CDK7: Selectivity of CDK7 inhibition over CDK5 inhibition” value in test [7] is “B (B=less than 200 fold, but greater than 20 fold)”.

In the case of `CC(C)c1cnn2c(NCc3ccccc3-c3cc4ccccc4[nH]3)nc(N3CCC(C(N)=O)CC3)nc12` [Compound 117], the IC50 in test [4] is more than 1000 nM; in test [5] it was more than 1000 nM; in test [6], more than 1000 nM; in [7], 100 to 1000 nM; in test [2], 1000 to 10000 nM; in test [3] it was 1000 to 10000 nM. For the same compound, the “CDK1/CDK7: Selectivity of CDK7 inhibition over CDK1 inhibition” value in test [7] is on record as “A (A=greater than 200 fold)”. Further, the “CDK2/CDK7: Selectivity of CDK7 inhibition over CDK2 inhibition” value in [7] is listed as “A (A=greater than 200 fold)”. The “CDK5/CDK7: Selectivity of CDK7 inhibition over CDK5 inhibition” value in [7] is listed as “B (B=less than 200 fold, but greater than 20 fold)”.

In the case of `CC(C)c1cnn2c(NCc3ccccc3-c3cc4ccccc4[nH]3)nc(NC3CCOCC3)nc12` [Compound 114], the half-maximal inhibitory concentration (IC50) is more than 1000 nM in test [4]; more than 1000 nM in test [5]; more than 1000 nM in test [6]; 100 to 1000 nM in test [7]; 1000 to 10000 nM in test [2]; 1000 to 10000 nM in [3]. For the same compound, in test [7], the “CDK1/CDK7: Selectivity of CDK7 inhibition over CDK1 inhibition” value is on record as “A (A=greater than 200 fold)”. Further, the “CDK2/CDK7: Selectivity of CDK7 inhibition over CDK2 inhibition” value in [7] is given as “B (B=less than 200 fold, but greater than 20 fold)”. The “CDK5/CDK7: Selectivity of CDK7 inhibition over CDK5 inhibition” value in test [7] is “B (B=less than 200 fold, but greater than 20 fold)”.

As for `CC(=O)NC1CCN(c2nc(NCc3ccccc3-c3cc4ccccc4[nH]3)n3ncc(C(C)C)c3n2)CC1` [Compound 111], the IC50 in test [4] was more than 1000 nM; in test [5], more than 1000 nM; in test [6], more than 1000 nM; in test [7], less than 100 nM; in test [2], 1000 to 10000 nM; in test [3], 1000 to 10000 nM. Moreover, the “CDK1/CDK7: Selectivity of CDK7 inhibition over CDK1 inhibition” value in [7] is recorded as “B (B=less than 200 fold, but greater than 20 fold)”. For the same compound, in test [7], the “CDK2/CDK7: Selectivity of CDK7 inhibition over CDK2 inhibition” value was “B (B=less than 200 fold, but greater than 20 fold)”. Further, the “CDK5/CDK7: Selectivity of CDK7 inhibition over CDK5 inhibition” value in [7] was “C (C=less than 20 fold)”.

As for `CC(C)c1cnn2c(NCc3ccccc3-c3cn4c(n3)CCCC4)nc(N3CCC(N)CC3)nc12` [Compound 122], the concentration for half-maximal inhibition (IC50) in [4] is more than 1000 nM; in test [5] it was 100 to 1000 nM; in [6], 100 to 1000 nM; in test [7], less than 100 nM; in [8], less than 1000 nM; in test [1], less than 1000 nM. In addition, the half-maximal inhibitory concentration (IC50) in [9] and in test [3] was less than 1000 nM in each case. Besides, the “CDK1/CDK7: Selectivity of CDK7 inhibition over CDK1 inhibition” value in test [7] was “A (A=greater than 200 fold)”. In addition, the “CDK2/CDK7: Selectivity of CDK7 inhibition over CDK2 inhibition” value in test [7] was “B (B=less than 200 fold, but greater than 20 fold)”. Moreover, the “CDK5/CDK7: Selectivity of CDK7 inhibition over CDK5 inhibition” value in test [7] was “B (B=less than 200 fold, but greater than 20 fold)”.

With `CC(C)c1cnn2c(NCc3cccc4ccc(-n5cccn5)nc34)nc(N3CCC(N)CC3)nc12` [Compound 59], the half-maximal inhibitory concentration (IC50) in test [1], in test [2] and in [3] was 1000 to 10000 nM each time.

Regarding `CC(C)c1cnn2c(NCc3ccccc3-n3cc4c(n3)CCOC4)nc(N3CCC(N)CC3)nc12` [Compound 133], the IC50 is more than 1000 nM in test [4]; 100 to 1000 nM in test [5]; 100 to 1000 nM in [6]; less than 100 nM in test [7]; less than 1000 nM in [8]; less than 1000 nM in [1]. The half-maximal inhibitory concentration (IC50) in [9] and in [3] was less than 1000 nM throughout. In addition, in [7], the “CDK1/CDK7: Selectivity of CDK7 inhibition over CDK1 inhibition” value is on record as “A (A=greater than 200 fold)”. Besides, the “CDK2/CDK7: Selectivity of CDK7 inhibition over CDK2 inhibition” value in test [7] is listed as “B (B=less than 200 fold, but greater than 20 fold)”. In addition, the “CDK5/CDK7: Selectivity of CDK7 inhibition over CDK5 inhibition” value in test [7] is reported as “B (B=less than 200 fold, but greater than 20 fold)”.

Turning to `CC(C)c1cnn2c(NCc3ccccc3-n3cc4cc(Br)ccc4n3)nc(N3CCC(N)CC3)nc12` [Compound 100], the IC50 in [1] was less than 1000 nM; in test [2], 1000 to 10000 nM; in test [3], 1000 to 10000 nM.
